Experimental data as given in EP4741383A1, “COMPOUND AND USE THEREOF AS ANTI-CANCER DRUG” (Tyligand Bioscience (Shanghai) Limited, priority 2023, dated 2025).
Read-outs that look alike come from different tables or passages of the source.

Experiments:
LYP = molecular target: T1, LYP (Homo sapiens, UniProt Q9Y2R2); test: Tyrosine phosphatase selectivity (pNPP substrate), LYP; format: biochemical; settings: for IC50: LYP, pNPP substrate; for IC50PTP/IC50SHP2 LYP: selectivity ratio LYP over SHP2
T1 construct: made in house; host or cells: E. coli
T1 sequence (Q9Y2R2 1-807): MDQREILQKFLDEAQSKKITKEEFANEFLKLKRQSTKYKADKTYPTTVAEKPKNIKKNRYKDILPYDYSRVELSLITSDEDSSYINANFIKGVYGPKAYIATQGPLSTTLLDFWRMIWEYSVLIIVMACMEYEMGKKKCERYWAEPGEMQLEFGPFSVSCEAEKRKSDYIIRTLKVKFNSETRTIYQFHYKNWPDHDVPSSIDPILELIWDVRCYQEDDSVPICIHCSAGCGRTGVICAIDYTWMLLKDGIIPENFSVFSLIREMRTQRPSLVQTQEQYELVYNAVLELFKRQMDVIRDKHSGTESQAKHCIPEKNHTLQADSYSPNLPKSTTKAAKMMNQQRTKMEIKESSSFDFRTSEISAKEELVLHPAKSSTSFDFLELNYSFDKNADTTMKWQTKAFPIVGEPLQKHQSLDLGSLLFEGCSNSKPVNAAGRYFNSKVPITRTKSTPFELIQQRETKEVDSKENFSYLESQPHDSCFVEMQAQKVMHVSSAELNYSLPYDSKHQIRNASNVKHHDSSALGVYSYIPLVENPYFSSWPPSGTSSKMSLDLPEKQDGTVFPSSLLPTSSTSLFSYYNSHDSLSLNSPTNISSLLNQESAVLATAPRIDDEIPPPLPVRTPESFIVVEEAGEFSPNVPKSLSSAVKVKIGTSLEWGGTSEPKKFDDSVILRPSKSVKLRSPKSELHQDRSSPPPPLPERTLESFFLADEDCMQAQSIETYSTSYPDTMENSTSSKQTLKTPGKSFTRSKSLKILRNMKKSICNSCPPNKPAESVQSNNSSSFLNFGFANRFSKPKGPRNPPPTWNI
Description: This experiment evaluated the selectivity of the disclosed compounds against tyrosine phosphatases, including SHP1, HePTP, Laforin, LMWPTP, LYP, PTP1B, PRL2, SSU72, VHR, FAP1, STEP, CDC14A, CD45, MEG2, and PP5, all expressed and purified from E. coli.
Phosphatase activity was measured using p-nitrophenyl phosphate (pNPP) (Fisher Scientific) as the substrate in 50 mM 3,3-dimethylglutaric acid buffer (pH 7.0, containing 1 mM EDTA), with ionic strength adjusted to 0.15 M with NaCl. […] After 10-60 minutes, the reaction was quenched by adding 20 µL of 5 N NaOH. Wells without enzyme were used as controls for correction. The amount of the product, p-nitrophenol, was determined by measuring the absorbance at 405 nm using a Spectra MAX340 microplate spectrophotometer (Molecular Devices), with a molar extinction coefficient of 18000 M^-1cm^-1.
Data were analyzed using GraphPad Prism software. Dose-response curves were obtained by fitting data using the nonlinear S-curve regression Dose-response-inhibition equation, and IC50 values were calculated.

[1] = Rat PK study (IV 1 mg/kg and PO 5 mg/kg); format: in vivo, male SD rats; settings: for AUC(0-t) / clearance / half-life / Vd / Cmax: male, SD, rat, plasma; for clearance: read-out: IV Cl; for Vd: read-out: IV Vz
Description: According to standard methods for rat PK studies in this field, the rat PK tests for the representative compounds of this disclosure and the positive control compound (11a-1) were conducted as follows.
Specifically, six male SD rats (6-8 weeks old, weighing 200 ± 20 g, purchased from Vital River Laboratories) were randomly divided into two groups of three rats each, for intravenous (IV) and oral gavage (PO) administration, respectively.
For the intravenous injection group: the test compound was weighed according to the administration dose (1 mg/kg), dissolved using the solvent listed in the table below to obtain a clear solution of 1 mg/mL, and administered to the rats via tail vein injection at a dose of 1 mg/kg. […]
Blood was collected via jugular vein puncture at various time points: 0.083, 0.25, 0.5, 1, 2, 4, 6, 8, and 24 hours. 0.2 mL of whole blood was collected at each time point, placed in a 1.5 mL anticoagulant tube containing EDTA, and placed on a sample plate containing wet ice until centrifugation; after centrifugation at 8000 rpm for 10 minutes at 4°C, 0.1 mL of plasma sample was collected and stored in an […] cryovial at -20°C until analysis.
Preparation of the stock solution of the test compound: 1 mg of the test compound was accurately weighed, dissolved in 1 mL of DMSO to prepare a 1 mg/mL stock solution S1, and stored in a 4°C refrigerator until use.
Preparation of the internal standard working solution: 0.1 mL of tolbutamide (2 mg/mL) internal standard stock solution was pipetted into 1000 mL of acetonitrile to prepare a 200 ng/mL internal standard working solution, which is used as a protein precipitant in sample pretreatment. The prepared internal standard working solution was stored at 4°C and valid for 12 months.
Preparation of the standard curve and quality control sample working solutions: 50 µL of the 1 mg/mL test compound DMSO stock solution S1 was diluted with 950 µL of 100% methanol solution to obtain a working solution with a concentration of 50000 ng/mL. Then, the 50000 ng/mL working solution was serially diluted with 100% methanol solution to obtain a series of standard curve working solutions with concentrations of 10, 20, 50, 100, 500, 1000, 5000, 10000, 20000, and 50000 ng/mL. 40 µL of the 1 mg/mL test compound DMSO stock solution S1 was diluted with 960 µL of 100% methanol solution to obtain a quality control sample working solution with a concentration of 40000 ng/mL. An appropriate amount of this working solution was diluted appropriately to prepare quality control sample working solutions with concentrations of 8000 and 16000 ng/mL. 60 µL of the 50 ng/mL test compound DMSO standard curve working solution was diluted with 40 µL of 100% methanol solution to obtain a quality control sample working solution with a concentration of 30 ng/mL.
Plasma sample treatment: standard curve and quality control samples for the test compound in plasma were prepared by diluting 5 µL of working solutions of different concentrations of the test compound for the standard curve and quality control samples in 45 µL of blank rat plasma, resulting in final concentrations of 1, 2, 5, 10, 50, 100, 500, 1000, 2000, and 5000 ng/mL for the standard curve and final concentrations of 3, 800, 1600, and 4000 ng/mL for the quality control samples.
Plasma sample pretreatment: 50 µL of the plasma sample was transferred to a 96-well plate, added with 500 µL of acetonitrile containing 200 ng/mL tolbutamide as an internal standard for protein precipitation, and centrifuged at 4000 rpm for 20 minutes at 2-8 °C. 300 µL of the supernatant was transferred to a new labeled 96-well plate, mixed thoroughly with 300 µL of 0.1% formic acid in water, and injected 10 µL into LC-MS/MS (API-4000 Qtrap-Shimadzu Controller-CBM20A).
The internal standard method was used for sample analysis. Data acquisition and analysis were performed using Analyst 1.6.3. […]

[2] = 1 mg/kg, IV, dose 1 mpk, read-out: IV AUC 0->t
[3] = 1 mg/kg, IV, dose 1 mpk, read-out: IV T1/2 (converted)
[4] = 5 mg/kg, PO, dose 5 mpk, read-out: PO AUC 0->t
[5] = 5 mg/kg, PO, dose 5 mpk, read-out: PO T1/2 (converted)

IC50 (LYP)	IC50PTP/IC50SHP2 LYP (LYP)	SMILES	further results
500 nM	17.2	O=C(Nc1ccc(-c2ccsc2)cc1)C(=O)Nc1ccc(-c2cc3cc(F)c(-c4nnn[nH]4)cc3n2C2CCC2)cc1 [Example 4]	
1050 nM	9.7	Cn1c(-c2cccc(NC(=O)C(=O)Nc3ccc(-c4ccsc4)cc3)c2)c(I)c2cc(C(=O)O)c(O)cc21 [Example 11a-1, reference compound]	PO F ([1]; PO, dose 10 mpk (IV 1 mpk)): 0.07%; AUC(0-t) [1, 2]: 4230 ng·h/mL; clearance ([1]; 1 mg/kg, IV, dose 1 mpk): 4 mL/min/kg; half-life [1, 3]: 4.06 h; Vd ([1]; 1 mg/kg, IV, dose 1 mpk): 1.42 L/kg; Cmax ([1]; 10 mg/kg, PO, dose 10 mpk): 44.2 ng/mL; AUC(0-t) ([1]; 10 mg/kg, PO, dose 10 mpk, read-out: PO AUC 0->t): 30 ng·h/mL; half-life ([1]; 10 mg/kg, PO, dose 10 mpk, read-out: PO T1/2 (converted)): 1.1 h
		O=C(Nc1ccc(-c2cc3cc(F)c(-c4nnn[nH]4)cc3n2C2CCC2)cc1)C(=O)Nc1ccc(N2CCC(CO)CC2)cc1 [Example 23]	PO F ([1]; PO, dose 5 mpk (IV 1 mpk)): 52.7%; AUC(0-t) [1, 2]: 2840 ng·h/mL; clearance ([1]; 1 mg/kg, IV, dose 1 mpk): 5.45 mL/min/kg; half-life [1, 3]: 8.49 h; Vd ([1]; 1 mg/kg, IV, dose 1 mpk): 4.01 L/kg; Cmax ([1]; 5 mg/kg, PO, dose 5 mpk): 1140 ng/mL; AUC(0-t) [1, 4]: 8010 ng·h/mL; half-life [1, 5]: 3.17 h
76 nM	2.2	O=C(Nc1ccc(-c2cc3cc(F)c(-c4nnn[nH]4)cc3n2C2CCC2)cc1)C(=O)Nc1ccc(N2CCC3(CCOC3)CC2)cc1 [Example 67]	
1540 nM	32.1	CC1(n2c(-c3ccc(NC(=O)C(=O)Nc4ccc(N5CCC6(CCOC6)CC5)cc4)cc3)cc3cc(F)c(-c4nnn[nH]4)cc32)CCC1 [Example 68]	PO F ([1]; PO, dose 5 mpk (IV 1 mpk)): 30.5%; AUC(0-t) [1, 2]: 1380 ng·h/mL; clearance ([1]; 1 mg/kg, IV, dose 1 mpk): 12.6 mL/min/kg; half-life [1, 3]: 1.63 h; Vd ([1]; 1 mg/kg, IV, dose 1 mpk): 1.57 L/kg; Cmax ([1]; 5 mg/kg, PO, dose 5 mpk): 150 ng/mL; AUC(0-t) [1, 4]: 2100 ng·h/mL; half-life [1, 5]: 4.31 h
100 nM	1.3	O=C(Nc1ccc(-c2cc3cc(F)c(-c4nnn[nH]4)cc3n2C2CCC2)cc1)C(=O)Nc1ccc(N2CC3COCC3C2)cc1 (centres unmarked) [Example 114]	
1070 nM	7.6	Cn1cc(-c2ccc(NC(=O)C(=O)Nc3ccc(-c4cc5cc(F)c(-c6noc(=O)[nH]6)cc5n4C4CCC4)cc3)cc2)cn1 [Example 123]	
> 100000 nM	139.7	Cn1cc(-c2ccc(NC(=O)C(=O)Nc3ccc(-c4cc5cc(F)c(-c6nnc(C(F)(F)F)[nH]6)cc5n4C4CCC4)cc3)cc2)cn1 [Example 124]	
1200 nM	48	O=C(Nc1ccc(-c2ccsc2)cc1)C(=O)Nc1ccc(-c2oc3cc(F)c(-c4nnn[nH]4)cc3c2C2CCC2)cc1 [Example 130]	
500 nM	19.2	O=C(Nc1ccc(-c2ccsc2)cc1)C(=O)Nc1ccc(-c2cc3cnc(-c4nnn[nH]4)nc3n2C2CCC2)cc1 [Example 131]	
500 nM	18.5	O=C(Nc1ccc(-c2ccsc2)cc1)C(=O)Nc1ccc(-c2cc3cc(F)c(-c4nnn[nH]4)nc3n2C2CCC2)cc1 [Example 132]	

SMILES	IC50 (LYP)	IC50PTP/IC50SHP2 LYP (LYP)	further results
O=C(Nc1ccc(-c2cc3cc(F)c(-c4nnn[nH]4)cc3n2C2CCC2)cc1)C(=O)Nc1ccc(N2CCOCC2)cc1 [Example 47]	189 nM	3.0	
O=C(Nc1ccc(-c2oc3cc(F)c(-c4nnn[nH]4)cc3c2C2CCC2)cc1)C(=O)Nc1ccc(N2CCC3(CCOC3)CC2)cc1 [Example 125]	2500 nM	49.0	
O=C(Nc1ccc(-c2ccsc2)cc1)C(=O)Nc1ccc(-c2cc3ccc(-c4nnn[nH]4)nc3n2C2CCC2)cc1 [Example 129]	1200 nM	20.3	
